The test deals with T1, AXL R499C (Homo sapiens, UniProt P30530, R499C).
T1 construct: purchased Thermo Fisher Scientific (Life Technologies) SelectScreen
Briefly: SelectScreen LanthaScreen. The test is classed as binding. The settings on record: read-out: % displacement. The method in brief: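 NU5455 was profiled across the SelectScreen Broad panel of kinase activity and binding assays. Z'LYTE reactions such as CSF1R ran at apparent Km ATP, while the Adapta CAMK1 assay used ATP listed as 10. Values are given as percent.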
Background: TR-FRET usually uses a lanthanide donor and a delayed reading to cut background.

SMILES strings stand for the structures.

T1 sequence (P30530 26-894 R499C): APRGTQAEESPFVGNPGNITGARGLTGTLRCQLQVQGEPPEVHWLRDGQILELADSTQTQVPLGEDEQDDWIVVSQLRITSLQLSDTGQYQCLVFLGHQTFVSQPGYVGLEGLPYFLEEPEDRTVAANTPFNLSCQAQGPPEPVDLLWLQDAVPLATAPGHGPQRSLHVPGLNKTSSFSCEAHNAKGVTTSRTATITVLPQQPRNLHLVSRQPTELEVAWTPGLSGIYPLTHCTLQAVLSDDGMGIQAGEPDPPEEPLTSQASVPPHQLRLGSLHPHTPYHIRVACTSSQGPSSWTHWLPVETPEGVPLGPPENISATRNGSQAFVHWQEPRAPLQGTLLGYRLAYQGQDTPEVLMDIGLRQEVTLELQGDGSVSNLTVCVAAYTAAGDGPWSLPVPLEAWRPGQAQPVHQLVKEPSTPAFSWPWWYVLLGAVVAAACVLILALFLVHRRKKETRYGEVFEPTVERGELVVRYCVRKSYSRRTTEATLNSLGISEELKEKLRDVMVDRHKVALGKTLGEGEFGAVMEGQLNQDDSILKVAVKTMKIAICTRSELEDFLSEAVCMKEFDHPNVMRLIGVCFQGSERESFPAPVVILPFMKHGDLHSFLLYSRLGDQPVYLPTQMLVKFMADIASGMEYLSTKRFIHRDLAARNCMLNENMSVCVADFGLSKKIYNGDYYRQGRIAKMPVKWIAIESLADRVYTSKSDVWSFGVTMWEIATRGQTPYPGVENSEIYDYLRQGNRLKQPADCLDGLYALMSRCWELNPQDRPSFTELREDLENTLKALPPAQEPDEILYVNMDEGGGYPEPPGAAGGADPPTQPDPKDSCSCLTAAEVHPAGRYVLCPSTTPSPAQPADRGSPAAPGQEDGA

`CN(C(=O)CN1CCOCC1)c1ccc2sc3c(-c4cccc5c(=O)cc(N6CC7CCC(C6)O7)oc45)cccc3c2c1` [NU5455]: the inhibition at 1 µM is -2.7%.

The values are drawn from paper PMC6934184, “Selective DNA-PKcs inhibition extends the therapeutic index of localized radiotherapy and chemotherapy” (The Journal of Clinical Investigation, 2019).
